Experimental data from article PMC11721541 (Journal of Lipid Research, 2024).

Tests used:
human lipin 1γ = target: T1, human lipin 1γ (Homo sapiens, UniProt Q14693); test: PAP assay, human lipin 1γ; assay type: biochemical; details: unphosphorylated, from E. coli; PA 2.4 mol %
T1 construct: His6 (C); made in house; host or cells: E. coli Rosetta2(DE3)pLysS, plasmid pGH321 (pET-28b(+) derivative)
T1 sequence (Q14693 1-916 isoform Q14693-4): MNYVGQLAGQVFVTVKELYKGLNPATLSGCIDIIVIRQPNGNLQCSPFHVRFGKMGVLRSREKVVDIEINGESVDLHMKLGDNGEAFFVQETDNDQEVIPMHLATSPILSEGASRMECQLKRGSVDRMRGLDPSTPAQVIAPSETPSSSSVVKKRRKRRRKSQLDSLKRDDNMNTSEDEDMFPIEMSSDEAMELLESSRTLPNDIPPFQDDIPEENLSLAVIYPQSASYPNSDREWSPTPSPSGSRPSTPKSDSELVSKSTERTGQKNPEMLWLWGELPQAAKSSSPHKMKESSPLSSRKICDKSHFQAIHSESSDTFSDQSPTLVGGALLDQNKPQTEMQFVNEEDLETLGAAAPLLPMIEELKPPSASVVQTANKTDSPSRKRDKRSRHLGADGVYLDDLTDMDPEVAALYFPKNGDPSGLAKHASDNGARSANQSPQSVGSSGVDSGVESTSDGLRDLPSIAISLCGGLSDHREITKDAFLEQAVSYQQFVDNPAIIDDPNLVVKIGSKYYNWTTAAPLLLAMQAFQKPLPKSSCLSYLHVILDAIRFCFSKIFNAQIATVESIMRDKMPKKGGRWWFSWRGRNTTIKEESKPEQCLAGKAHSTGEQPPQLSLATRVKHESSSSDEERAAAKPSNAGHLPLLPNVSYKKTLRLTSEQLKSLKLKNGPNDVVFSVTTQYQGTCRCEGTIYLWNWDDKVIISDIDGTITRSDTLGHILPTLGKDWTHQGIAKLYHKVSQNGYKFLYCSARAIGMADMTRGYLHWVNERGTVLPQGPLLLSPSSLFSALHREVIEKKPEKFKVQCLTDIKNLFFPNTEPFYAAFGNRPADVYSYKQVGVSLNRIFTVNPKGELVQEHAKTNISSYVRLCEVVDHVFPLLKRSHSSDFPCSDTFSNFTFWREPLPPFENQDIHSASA
Procedure: (§1) PA dissolved in chloroform was dried in vacuo for 1 h. The dried PA was suspended in Triton X-100 to prepare Triton X-100/PA-mixed micelles ([88]). The mole percent of PA in the Triton X-100/PA-mixed micelle was calculated using the following formula: mol %PA = 100 × [PA (molar)]/([PA (molar)] + [Triton X-100 (molar)]). The total PA concentration in the Triton X-100/PA-mixed micelles was kept below 15 mol% to ensure that the structure of the PA-mixed micelles was similar to that of pure Triton X-100 micelles ([89], [90]).
(§2) PAP activity was measured at 30°C for 20 min by following the release of water-soluble ^32Pi from chloroform-soluble [^32P]PA (5,000–10,000 cpm/nmol) ([1], [88]). [^32P]PA was enzymatically synthesized from 1, 2-dioleoyl DAG and [γ-^32P]ATP with E. coli DAG kinase ([88]). Pah1-CC PAP activity was measured by following the formation of Pi from unlabeled PA using the malachite green-molybdate reagent ([4], [91]). The reaction mixture in a total volume of 100 μl contained 50 mM Tris-HCl (pH 7.5), 1 mM MgCl2, 10 mM 2-mercaptoethanol, 0.2 mM PA, 2 mM Triton X-100, and 50 ng purified enzyme. The enzyme assays were conducted in triplicate; the reactions were linear with time and protein concentration.
(§3) Each of the isoforms was heterologously expressed in E. coli, which allowed for their isolation in the unphosphorylated state ([4]).

human lipin 1α = target: T2, human lipin 1α (Homo sapiens, UniProt Q14693); test: PAP assay, human lipin 1α; assay type: biochemical; details: for IC50: unphosphorylated, from E. coli, PA 2.4 mol %
T2 construct: His6 (C); made in house; host or cells: E. coli Rosetta2(DE3)pLysS, plasmid pGH322 (pET-28b(+) derivative)
T2 sequence (Q14693 1-890): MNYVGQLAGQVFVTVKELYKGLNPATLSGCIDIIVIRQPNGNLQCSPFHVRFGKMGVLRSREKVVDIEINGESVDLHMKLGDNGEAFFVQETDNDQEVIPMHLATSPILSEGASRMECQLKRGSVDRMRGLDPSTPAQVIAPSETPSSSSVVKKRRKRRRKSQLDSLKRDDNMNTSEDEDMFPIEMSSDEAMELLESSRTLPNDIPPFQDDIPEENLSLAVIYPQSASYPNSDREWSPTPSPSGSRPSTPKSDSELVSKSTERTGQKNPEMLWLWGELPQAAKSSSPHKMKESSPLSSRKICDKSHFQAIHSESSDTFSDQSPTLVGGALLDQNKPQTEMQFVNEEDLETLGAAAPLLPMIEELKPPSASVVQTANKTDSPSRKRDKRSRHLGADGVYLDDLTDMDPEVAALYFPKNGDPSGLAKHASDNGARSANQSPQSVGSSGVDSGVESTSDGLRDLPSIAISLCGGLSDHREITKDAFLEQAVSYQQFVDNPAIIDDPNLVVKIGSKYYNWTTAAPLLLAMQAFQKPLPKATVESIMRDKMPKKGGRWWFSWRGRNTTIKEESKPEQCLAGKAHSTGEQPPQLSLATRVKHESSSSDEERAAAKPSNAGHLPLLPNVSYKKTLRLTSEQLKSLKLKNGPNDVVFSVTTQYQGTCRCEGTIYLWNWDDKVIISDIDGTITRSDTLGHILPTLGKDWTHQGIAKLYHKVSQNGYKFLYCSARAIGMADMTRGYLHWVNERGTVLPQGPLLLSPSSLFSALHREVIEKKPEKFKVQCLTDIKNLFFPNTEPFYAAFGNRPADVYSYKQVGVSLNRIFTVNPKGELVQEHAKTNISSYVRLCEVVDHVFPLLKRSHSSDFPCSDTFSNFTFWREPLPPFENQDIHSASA
Procedure: as §1, §2, §3

human lipin 1β = target: T3, human lipin 1β (Homo sapiens, UniProt Q14693); test: PAP assay, human lipin 1β; assay type: biochemical; details: unphosphorylated, from E. coli; PA 2.4 mol %
T3 construct: His6 (C); made in house; host or cells: E. coli Rosetta2(DE3)pLysS, plasmid pGH327 (pET-28b(+) derivative)
T3 sequence (Q14693 1-926 isoform Q14693-3): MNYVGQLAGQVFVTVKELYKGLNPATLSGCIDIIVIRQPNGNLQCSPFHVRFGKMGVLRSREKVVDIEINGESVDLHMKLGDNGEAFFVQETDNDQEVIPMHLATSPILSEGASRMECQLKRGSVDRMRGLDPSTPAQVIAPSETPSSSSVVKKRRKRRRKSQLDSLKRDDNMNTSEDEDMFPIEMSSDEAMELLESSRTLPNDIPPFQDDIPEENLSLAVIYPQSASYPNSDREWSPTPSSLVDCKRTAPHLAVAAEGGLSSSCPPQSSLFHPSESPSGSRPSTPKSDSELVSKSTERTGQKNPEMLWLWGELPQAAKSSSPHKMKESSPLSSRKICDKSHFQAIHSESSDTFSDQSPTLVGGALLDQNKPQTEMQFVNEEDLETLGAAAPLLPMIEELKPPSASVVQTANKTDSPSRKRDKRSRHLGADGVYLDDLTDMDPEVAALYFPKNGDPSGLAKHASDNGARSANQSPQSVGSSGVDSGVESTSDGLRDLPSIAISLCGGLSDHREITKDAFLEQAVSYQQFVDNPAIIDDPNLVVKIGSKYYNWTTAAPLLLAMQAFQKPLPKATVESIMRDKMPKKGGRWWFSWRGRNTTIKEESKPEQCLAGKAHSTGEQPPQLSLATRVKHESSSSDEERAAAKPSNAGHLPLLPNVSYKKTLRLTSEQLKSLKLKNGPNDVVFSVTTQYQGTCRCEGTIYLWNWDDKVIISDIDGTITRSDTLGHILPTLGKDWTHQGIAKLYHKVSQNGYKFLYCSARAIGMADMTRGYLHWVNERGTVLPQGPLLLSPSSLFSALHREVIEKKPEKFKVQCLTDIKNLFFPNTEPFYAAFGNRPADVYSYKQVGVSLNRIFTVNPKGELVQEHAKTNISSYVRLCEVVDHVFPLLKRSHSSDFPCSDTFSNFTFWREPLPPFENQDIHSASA
Procedure: as §1, §2, §3

[1] = tested on: pah1Δ cells (SS1026) overexpressing Pah1 or Pah1-CC; assay type: cell-based, Saccharomyces cerevisiae
Procedure: (§4) The cell density was determined by measurement of A600 nm after a 48-h static incubation using a SpectraMax M2e microplate reader (Molecular Devices). […] The A600 nm readings were taken after 4 days of incubation.

[2] = tested on: WT S. cerevisiae cells (RS453); test: Lipid analysis ([2-14C]acetate labeling, TLC) in S. cerevisiae; details: 163 μM, 12 h, SC-0.2% glucose
Source text: Lipids were extracted ([97]) from ∼ 8 × 10^7 cells and analyzed by one-dimensional TLC with silica gel 60 plates using the solvent system containing hexane/diethyl ether/glacial acetic acid (40:10:1, v/v) ([98]). Radiolabeled lipids were visualized by phosphorimaging with a Storm 860 Molecular Imager (GE Healthcare) and quantified with ImageQuant software using a standard curve of [2–^14C]acetate. The amounts of TAG and phospholipids were normalized to total lipids on TLC plates.
The radiolabeling was performed in the SC medium owing to the difficulty of [2–^14C]acetate incorporation into cells grown in the RPMI medium.

HepG2 cells = test: Lipid analysis (TLC, charring) in HepG2 cells; assay type: cell-based, human; details: 10 μM, 18 h
pah1Δ mutant cells = assay type: cell-based, Saccharomyces cerevisiae
Procedure: as §4
For this experiment, we cultured the mutant in SC-0.2% glucose medium because of its growth defect in RPMI-0.2% glucose.
We reasoned that an overexpressed level of PAP activity would more readily rescue the inhibitory effect of the drug on the mutant growth.

SMILES	IC50 (human lipin 1γ) [µM]	IC50 (human lipin 1α) [µM]	IC50 (human lipin 1β) [µM]	effect on growth of cells expressing Pah1 [1]	IC50 values for lipin 1 isoforms lower than those of propranolol (human lipin 1α; lipin 1 α, β and γ isoforms together) [fold]	decrease of TAG content [2] [fold]	increase of phospholipid content [2] [fold]	reduction in the TAG level (HepG2 cells) [fold]	growth of cells during the incubation period (HepG2 cells; vs DMSO vehicle)	effect on growth of pah1Δ mutant (pah1Δ mutant cells)
CC(C)NCC(O)COc1cccc2ccccc12 (stereo not shown) [propranolol]	227	226	271							
CN[C@H]1CC[C@@H](c2ccc(Cl)c(Cl)c2)c2ccccc21 [sertraline]	143	103	108	mild inhibition	~2	2.2	1.2	2	did not differ from that of the control	severe reduction in growth
